# Data reported in ChEMBL document CHEMBL5052841, “Usp19 inhibitors for use in therapy” (2020).
# The source made the active and inactive calls. The calls are words filed in the database; no cut-off is given here.
# Key:
# [1] = target: T1, Ubiquitin carboxyl-terminal hydrolase 19 (Homo sapiens, UniProt O94966); test: Inhibition of C-terminal His6-tagged recombinant human USP19 using iso-peptide ubiquitin-Lys-TAMRA as substrate incubated for 30 mins and measured after 90 mins by fluorescent polarization assay
# T1 sequence (O94966 whole entry): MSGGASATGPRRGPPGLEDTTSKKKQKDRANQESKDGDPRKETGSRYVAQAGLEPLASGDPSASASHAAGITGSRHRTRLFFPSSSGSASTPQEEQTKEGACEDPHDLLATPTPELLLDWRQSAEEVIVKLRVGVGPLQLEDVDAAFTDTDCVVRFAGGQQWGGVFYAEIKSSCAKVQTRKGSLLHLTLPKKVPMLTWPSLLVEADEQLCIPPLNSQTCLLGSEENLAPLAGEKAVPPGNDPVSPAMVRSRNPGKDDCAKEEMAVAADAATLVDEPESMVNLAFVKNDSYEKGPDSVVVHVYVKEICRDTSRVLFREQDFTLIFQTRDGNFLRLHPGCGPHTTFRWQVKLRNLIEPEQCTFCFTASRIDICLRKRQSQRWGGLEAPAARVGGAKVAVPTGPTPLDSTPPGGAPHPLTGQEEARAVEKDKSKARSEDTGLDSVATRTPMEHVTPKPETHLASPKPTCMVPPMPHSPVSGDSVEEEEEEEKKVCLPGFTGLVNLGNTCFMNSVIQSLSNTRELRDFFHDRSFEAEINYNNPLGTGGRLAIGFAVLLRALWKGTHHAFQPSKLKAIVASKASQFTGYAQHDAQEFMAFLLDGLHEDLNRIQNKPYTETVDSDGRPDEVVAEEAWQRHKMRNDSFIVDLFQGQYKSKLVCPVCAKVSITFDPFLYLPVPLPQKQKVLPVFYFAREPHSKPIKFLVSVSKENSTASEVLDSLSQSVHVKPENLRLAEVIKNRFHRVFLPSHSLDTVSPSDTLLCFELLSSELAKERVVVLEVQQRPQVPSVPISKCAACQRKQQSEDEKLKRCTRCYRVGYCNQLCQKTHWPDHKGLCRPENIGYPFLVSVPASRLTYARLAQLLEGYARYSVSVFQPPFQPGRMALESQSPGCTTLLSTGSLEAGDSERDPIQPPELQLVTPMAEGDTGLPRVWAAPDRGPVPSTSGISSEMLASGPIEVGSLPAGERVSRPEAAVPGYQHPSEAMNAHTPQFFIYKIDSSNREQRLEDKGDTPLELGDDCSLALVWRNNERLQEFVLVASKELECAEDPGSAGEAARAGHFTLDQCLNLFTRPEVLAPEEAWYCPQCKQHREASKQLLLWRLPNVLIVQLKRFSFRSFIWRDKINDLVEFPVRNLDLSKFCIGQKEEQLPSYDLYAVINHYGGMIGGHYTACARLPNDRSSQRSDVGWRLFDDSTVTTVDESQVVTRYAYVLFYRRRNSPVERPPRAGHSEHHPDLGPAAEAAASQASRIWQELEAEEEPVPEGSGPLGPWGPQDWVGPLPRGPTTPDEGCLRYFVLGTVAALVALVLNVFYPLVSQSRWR
# [2] = target: T1, Ubiquitin carboxyl-terminal hydrolase 19; test: Inhibition of USP19 (unknown origin) in breast cancer cell measured by cell target engagement assay; design: species or system Breast cancer cell line
# [3] = target: T1, Ubiquitin carboxyl-terminal hydrolase 19; test: Inhibition of USP19 (unknown origin) in neuroblastoma cell measured by cell target engagement assay; assay type: cell-based
# [4] = Inhibition of USP19 in mouse skeletal muscle cell measured by cell target engagement assay; assay type: cell-based
# Mus musculus [5] = test: Protection against sciatic nerve denervation-induced muscular atrophy in male C57BL/6 mouse assessed as lower loss of tibialis anterior muscle at 75 mg/kg, ip administered twice daily; assay type: functional, organism-based
# Mus musculus [6] = test: Protection against sciatic nerve denervation-induced muscular atrophy in male C57BL/6 mouse assessed as decrease in muscle wasting in gastrocnemius muscle at 75 mg/kg, ip administered twice daily; assay type: functional, organism-based
# Mus musculus [7] = test: Antiobesity activity in high-fat diet-induced obesity model of male C57BL/6J mouse assessed as reduction in epididymal fat mass at 5 to 25 mg/kg, ip administered twice daily; assay type: functional, organism-based; details: dose 5-25 mg/kg
# Mus musculus [8] = test: Antiobesity activity in high-fat diet-induced obesity model of male C57BL/6J mouse assessed as increase in liver mass at 5 to 25 mg/kg, ip administered twice daily; assay type: functional, organism-based; details: dose 5-25 mg/kg
# Mus musculus [9] = test: Antiobesity activity in high-fat diet-induced obesity model of male C57BL/6J mouse assessed as decrease in body weight gain at 5 to 25 mg/kg, ip administered twice daily; assay type: functional, organism-based; details: dose 5-25 mg/kg
# Mus musculus [10] = test: Antiobesity activity in high-fat diet-induced obesity model of male C57BL/6J mouse assessed as reduction in fat mass at 5 to 25 mg/kg, ip administered twice daily; assay type: functional; design: scale not given: the % may be the effect or the level left; details: dose 5-25 mg/kg
# Mus musculus [11] = test: Antiobesity activity in high-fat diet-induced obesity model of male C57BL/6J mouse assessed as reduction in lean mass at 5 to 25 mg/kg, ip administered twice daily; assay type: functional; design: scale not given: the % may be the effect or the level left; details: dose 5-25 mg/kg
# [12] = Toxicity in high-fat diet-induced obesity model of male C57BL/6J mouse assessed as decrease in total body weight at 25 mg/kg, ip administered twice daily; assay type: organism-based; design: scale not given: the % may be the effect or the level left; details: in vivo
# [13] = Toxicity in high-fat diet-induced obesity model of male C57BL/6J mouse assessed as effect on body water content at 5 mg/kg, ip administered twice daily; assay type: organism-based; details: in vivo
# [14] = Toxicity in high-fat diet-induced obesity model of male C57BL/6J mouse assessed as increase in body water content at 25 mg/kg, ip administered twice daily; assay type: organism-based; details: in vivo
# [15] = Toxicity in high-fat diet-induced obesity model of male C57BL/6J mouse assessed as reduction in body fat at 25 mg/kg, ip administered twice daily; assay type: organism-based; design: scale not given: the % may be the effect or the level left; details: in vivo
# [16] = Toxicity in high-fat diet-induced obesity model of male C57BL/6J mouse assessed as decrease in total protein content at 25 mg/kg, ip administered twice daily; assay type: organism-based; design: scale not given: the % may be the effect or the level left; details: in vivo
# [17] = Toxicity in high-fat diet-induced obesity model of male C57BL/6J mouse assessed as effect on total protein content at 5 mg/kg, ip administered twice daily; assay type: organism-based; details: in vivo
# [18] = Toxicity in high-fat diet-induced obesity model of male C57BL/6J mouse assessed as decrease in total ash content at 25 mg/kg, ip administered twice daily; assay type: organism-based; design: scale not given: the % may be the effect or the level left; details: in vivo
# Mus musculus [19] = test: Anti-diabetic activity in high-fat diet-induced obesity model of male C57BL/6J mouse assessed as decrease in plasma glucose at 25 mg/kg, ip administered twice daily; assay type: functional, organism-based
# Mus musculus [20] = test: Anti-diabetic activity in high-fat diet-induced obesity model of male C57BL/6J mouse assessed as decrease in plasma insulin at 25 mg/kg, ip administered twice daily; assay type: functional, organism-based
# [21] = Toxicity in high-fat diet-induced obesity model of male C57BL/6J mouse assessed as decrease in total body weight at 0.1 mg/kg, sc administered twice daily; assay type: organism-based; design: scale not given: the % may be the effect or the level left; details: in vivo
# [22] = Toxicity in high-fat diet-induced obesity model of male C57BL/6J mouse assessed as decrease in body water content at 0.1 mg/kg, sc administered twice daily; assay type: organism-based; design: scale not given: the % may be the effect or the level left; details: in vivo
# [23] = Toxicity in high-fat diet-induced obesity model of male C57BL/6J mouse assessed as reduction in body fat at 0.1 mg/kg, sc administered twice daily; assay type: organism-based; design: scale not given: the % may be the effect or the level left; details: in vivo
# [24] = Toxicity in high-fat diet-induced obesity model of male C57BL/6J mouse assessed as decrease in total protein content at 0.1 mg/kg, sc administered twice daily; assay type: organism-based; design: scale not given: the % may be the effect or the level left; details: in vivo
# [25] = Toxicity in high-fat diet-induced obesity model of male C57BL/6J mouse assessed as decrease in total ash content at 0.1 mg/kg, sc administered twice daily; assay type: organism-based; design: scale not given: the % may be the effect or the level left; details: in vivo
smiles,measurement,setting,value
C[C@H](CC1CCCCC1)C(=O)N1CC[C@@](O)(Cn2cc(C(=O)N3CCNCC3)c(-c3ccccc3)cc2=O)C2(CCCC2)C1,IC50,[1],< 500 nM
same,EC50,[2],9.9 nM
same,EC50,[3],32.8 nM
same,EC50,[4],13.5 nM
same,Activity,Mus musculus [5],Active
same,Activity,Mus musculus [6],Active
same,Activity,Mus musculus [7],Active
same,Activity,Mus musculus [8],Active
same,Activity,Mus musculus [9],Active
same,Activity,Mus musculus [10],24%
same,Activity,Mus musculus [11],-3%
same,Activity,[12],13%
same,Activity,[13],Non-Toxic
same,Activity,[14],11.4%
same,Activity,[15],24.9%
same,Activity,[16],-7.2%
same,Activity,[17],Non-Toxic
same,Activity,[18],-9.6%
same,Activity,Mus musculus [19],Active
same,Activity,Mus musculus [20],Active
CCCCCCCCCCCCCCCC(=O)N[C@@H](CCC(=O)NCCCC[C@H](NC(=O)[C@H](C)NC(=O)[C@H](C)NC(=O)[C@H](CCC(N)=O)NC(=O)CNC(=O)[C@H](CCC(=O)O)NC(=O)[C@H](CC(C)C)NC(=O)[C@H](Cc1ccc(O)cc1)NC(=O)[C@H](CO)NC(=O)[C@H](CO)NC(=O)[C@@H](NC(=O)[C@H](CC(=O)O)NC(=O)[C@H](CO)NC(=O)[C@@H](NC(=O)[C@H](Cc1ccccc1)NC(=O)[C@@H](NC(=O)CNC(=O)[C@H](CCC(=O)O)NC(=O)[C@H](C)NC(=O)[C@@H](N)Cc1cnc[nH]1)[C@@H](C)O)[C@@H](C)O)C(C)C)C(=O)N[C@@H](CCC(=O)O)C(=O)N[C@@H](Cc1ccccc1)C(=O)N[C@H](C(=O)N[C@@H](C)C(=O)N[C@@H](Cc1c[nH]c2ccccc12)C(=O)N[C@@H](CC(C)C)C(=O)N[C@H](C(=O)N[C@@H](CCCNC(=N)N)C(=O)NCC(=O)N[C@@H](CCCNC(=N)N)C(=O)NCC(=O)O)C(C)C)[C@@H](C)CC)C(=O)O [LIRAGLUTIDE],Activity,[21],13%
same,Activity,[22],-8.6%
same,Activity,[23],17.4%
same,Activity,[24],-7.9%
same,Activity,[25],-11.6%
C[C@H](CC1CCCCC1)C(=O)N1CC[C@@](O)(Cn2cc(C(=O)N3CCNCC3)c(C3CC3)cc2=O)C2(CCCC2)C1,IC50,[1],< 500 nM
C[C@H](CC(F)(F)F)C(=O)N1CC[C@@](O)(Cn2cc(C(=O)N3CCOCC3)c(-c3ccccc3)cc2=O)C2(CCCC2)C1,IC50,[1],< 500 nM
C[C@H](CC(F)(F)F)C(=O)N1CC[C@@](O)(Cn2cc(C(=O)N(C)C)c(-c3ccccc3)cc2=O)C2(CCCC2)C1,IC50,[1],< 500 nM
C[C@H](CC1CCCCC1)C(=O)N1CCC(O)(Cn2cnc(-c3ccsc3)cc2=O)C(C)(C)C1 (stereo partly specified),IC50,[1],< 500 nM
C[C@H](CC1CCCCC1)C(=O)N1CCC(O)(Cn2cc(C(=O)N(C)C)c(Cl)cc2=O)C2(CCCC2)C1 (stereo partly specified),IC50,[1],< 500 nM
C[C@H](CC1CCCCC1)C(=O)N1CCC(O)(Cn2cc(C(=O)N(C)C)c(-c3ccc(CO)cc3)cc2=O)C2(CCCC2)C1 (stereo partly specified),IC50,[1],< 500 nM
C[C@H](CC(F)(F)F)C(=O)N1CC[C@@](O)(Cn2cc(C(=O)N3CCN(C)CC3)c(-c3ccccc3)cc2=O)C2(CCCC2)C1,IC50,[1],< 500 nM
CN(C)C(=O)c1cn(CC2(O)CCN(C(=O)C(O)CC3CCCCC3)CC23CCCC3)c(=O)cc1-c1ccccc1 (stereo unspecified),IC50,[1],< 500 nM
O=C(c1cn(C[C@]2(O)CCN(C(=O)[C@H](CO)CC(F)(F)F)CC23CCCC3)c(=O)cc1-c1ccccc1)N1CCNCC1,IC50,[1],< 500 nM
COC[C@H](CC1CCCCC1)C(=O)N1CC[C@@](O)(Cn2cc(C(=O)N(C)C)c(-c3ccccc3)cc2=O)C(C)(C)C1,IC50,[1],< 500 nM
C[C@H](CC1CCCCC1)C(=O)N1CC[C@@](O)(Cn2cc(C(=O)N3CCCC3)c(-c3ccccc3)cc2=O)C(C)(C)C1,IC50,[1],< 500 nM
C[C@H](CC1CCCCC1)C(=O)N1CC[C@@](O)(Cn2cc(C(=O)N3CCNC[C@H]3CO)c(-c3ccccc3)cc2=O)C(C)(C)C1,IC50,[1],< 500 nM
C[C@H](CC1CCCCC1)C(=O)N1CC[C@@](O)(Cn2cc(C(=O)O)c(-c3ccccc3)cc2=O)C2(CCCC2)C1,IC50,[1],< 500 nM
CC(=O)N1CCN(C(=O)c2cn(CC3(O)CCN(C(=O)[C@H](C)CC4CCCCC4)CC3(C)C)c(=O)cc2-c2ccccc2)CC1 (stereo partly specified),IC50,[1],< 500 nM
C[C@H](CC1CCCCC1)C(=O)N1CC[C@@](O)(Cn2cc(C(=O)N3CCNCC3)c(-c3ccccc3F)cc2=O)C(C)(C)C1,IC50,[1],< 500 nM
C[C@H](CC1CCCCC1)C(=O)N1CCC(O)(Cn2cc(C(=O)N(C)C)c(-c3ccsc3)cc2=O)C2(CCCC2)C1 (stereo partly specified),IC50,[1],< 500 nM
